# Calls of active or inactive are those of the source. The calls are words filed in the database; no cut-off is given here.
# Columns and labels:
# [1] = Solubility of the compound in phosphate buffer at pH 4.5; type: physicochemical
# [2] = Half life in rat liver microsomes; type: ADME, Microsome
# HCT-116 [3] = experiment: Antitumor activity against human HCT116 cells xenografted in nude BALB/c mouse assessed as tumor growth inhibition at 100 mg/kg, po qd for 21 days; type: functional; conditions: HCT-116, 504 h, read-out: TGI
# [4] = Apparent oral clearance in nude BALB/c mouse at 50 mg/kg, po; type: ADME, organism-based; set-up: dose 50 mg/kg, route oral; conditions: in vivo
# Mus musculus [5] = experiment: Toxicity in nude BALB/c mouse xenografted with human PC3 cells assessed as mortality at 50 mg/kg, po QD for 21 days measured on day 22; type: organism-based, PC-3; set-up: dose 50 mg/kg, route oral; conditions: in vivo, 504 h
# [6] = molecular target: Matrix metalloproteinase-9 (Homo sapiens) (UniProt P14780); experiment: Inhibition of MMP9 at 10 uM
# Sequence of Matrix metalloproteinase-9 (Homo sapiens) (P14780 whole entry): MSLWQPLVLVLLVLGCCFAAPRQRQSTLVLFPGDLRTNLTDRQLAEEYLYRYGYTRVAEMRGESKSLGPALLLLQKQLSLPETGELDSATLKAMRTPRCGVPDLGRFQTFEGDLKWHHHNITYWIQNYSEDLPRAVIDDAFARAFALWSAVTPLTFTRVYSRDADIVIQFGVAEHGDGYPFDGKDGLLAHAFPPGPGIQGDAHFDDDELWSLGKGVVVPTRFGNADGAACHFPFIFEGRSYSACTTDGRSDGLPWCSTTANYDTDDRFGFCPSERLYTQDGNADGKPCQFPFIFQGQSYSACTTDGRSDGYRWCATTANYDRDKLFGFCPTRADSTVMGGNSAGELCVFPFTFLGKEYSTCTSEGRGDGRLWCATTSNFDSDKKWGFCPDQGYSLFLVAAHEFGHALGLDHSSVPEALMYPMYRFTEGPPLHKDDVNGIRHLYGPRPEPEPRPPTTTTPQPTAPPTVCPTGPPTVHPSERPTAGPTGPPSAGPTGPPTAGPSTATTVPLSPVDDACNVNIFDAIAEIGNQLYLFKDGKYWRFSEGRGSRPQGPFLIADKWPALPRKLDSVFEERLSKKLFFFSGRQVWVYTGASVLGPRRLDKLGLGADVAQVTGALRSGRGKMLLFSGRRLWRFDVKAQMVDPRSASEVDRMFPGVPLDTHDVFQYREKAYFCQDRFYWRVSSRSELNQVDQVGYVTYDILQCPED
# Mus musculus [7] = experiment: Toxicity in nude BALB/c mouse xenografted with human HCT116 cells assessed as body weight loss at 100 mg/kg, po QD for 21 days measured on day 19; type: organism-based, HCT-116; set-up: dose 100 mg/kg, route oral; conditions: in vivo, 504 h
# [8] = 1-Octanol-sodium phosphate buffer distribution coefficient, log D of the compound at pH 7.4; type: physicochemical; conditions: 1-octanol/sodium phosphate buffer, read-out: logD
# [9] = Solubility of the compound in 0.9% NaCl; type: physicochemical
# [10] = Time required for attaining concentration above IC50 of HCT116 in tumor of nude BALB/c mouse xenografted with HCT116 cells at 50 mg/kg, po administered as single dose; type: ADME, organism-based, Neoplasm, HCT-116; set-up: dose 50 mg/kg, route oral; conditions: in vivo
# Mus musculus [11] = experiment: Toxicity in nude BALB/c mouse xenografted with human MV4-11 cells assessed as maximum body weight loss at 25 mg/kg, po QD for 21 days measured on day 12; type: organism-based; set-up: dose 25 mg/kg, route oral; conditions: in vivo, 504 h
# HCT-116 [12] = experiment: Antitumor activity against human HCT116 cells xenografted in nude BALB/c mouse assessed as tumor growth inhibition at 50 mg/kg, po qd for 21 days; type: functional; conditions: HCT-116, 504 h, read-out: TGI
# HCT-116 [13] = experiment: Antitumor activity against human HCT116 cells xenografted in nude BALB/c mouse assessed as tumor growth inhibition at 100 mg/kg, po qd for 21 days measured on day 18; type: functional; conditions: read-out: TGI
# [14] = molecular target: Voltage-gated inwardly rectifying potassium channel KCNH2 (Homo sapiens, UniProt Q12809); experiment: Displacement of [3H]-dofetilide from human ERG receptor at 10 uM
# Sequence of Voltage-gated inwardly rectifying potassium channel KCNH2 (Q12809 whole entry): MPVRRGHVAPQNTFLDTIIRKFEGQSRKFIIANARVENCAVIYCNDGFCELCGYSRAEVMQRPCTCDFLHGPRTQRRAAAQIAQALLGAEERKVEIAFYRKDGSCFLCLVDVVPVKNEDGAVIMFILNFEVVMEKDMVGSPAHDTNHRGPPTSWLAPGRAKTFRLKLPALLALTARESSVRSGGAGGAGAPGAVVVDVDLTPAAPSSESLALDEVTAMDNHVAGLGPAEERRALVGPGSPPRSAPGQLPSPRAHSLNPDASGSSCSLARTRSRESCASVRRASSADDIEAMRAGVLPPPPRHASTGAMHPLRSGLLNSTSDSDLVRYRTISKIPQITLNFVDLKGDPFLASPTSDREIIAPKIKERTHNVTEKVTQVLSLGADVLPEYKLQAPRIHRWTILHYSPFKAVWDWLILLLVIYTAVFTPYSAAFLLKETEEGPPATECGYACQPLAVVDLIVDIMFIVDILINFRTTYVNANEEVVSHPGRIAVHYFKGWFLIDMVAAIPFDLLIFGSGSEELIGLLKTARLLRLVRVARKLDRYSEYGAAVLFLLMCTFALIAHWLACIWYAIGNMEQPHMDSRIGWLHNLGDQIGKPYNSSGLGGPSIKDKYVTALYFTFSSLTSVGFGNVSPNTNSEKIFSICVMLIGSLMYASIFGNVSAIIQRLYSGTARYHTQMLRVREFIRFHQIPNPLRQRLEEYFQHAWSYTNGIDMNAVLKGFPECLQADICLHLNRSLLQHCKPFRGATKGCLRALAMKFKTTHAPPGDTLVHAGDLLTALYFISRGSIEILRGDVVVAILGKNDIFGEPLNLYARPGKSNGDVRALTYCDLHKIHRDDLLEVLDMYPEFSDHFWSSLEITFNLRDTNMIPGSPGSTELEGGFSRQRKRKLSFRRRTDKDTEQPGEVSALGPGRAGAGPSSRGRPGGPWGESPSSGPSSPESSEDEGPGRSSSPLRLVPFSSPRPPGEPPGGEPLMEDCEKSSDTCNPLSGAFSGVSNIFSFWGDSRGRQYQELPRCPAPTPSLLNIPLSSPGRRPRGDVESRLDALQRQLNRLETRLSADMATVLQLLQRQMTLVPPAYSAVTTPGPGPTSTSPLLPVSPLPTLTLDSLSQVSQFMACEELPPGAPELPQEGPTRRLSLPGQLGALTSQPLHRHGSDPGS
# [15] = Tmax in nude BALB/c mouse at 50 mg/kg, po; type: ADME, organism-based; set-up: dose 50 mg/kg, route oral; conditions: in vivo
# [16] = Time required for attaining concentration above IC50 of HDAC1 in tumor of nude BALB/c mouse xenografted with HCT116 cells at 50 mg/kg, po administered as single dose; type: ADME, organism-based, Neoplasm, HCT-116; set-up: dose 50 mg/kg, route oral; conditions: in vivo
# [17] = Half life in mouse liver microsomes; type: ADME, Microsome; conditions: liver microsomes
smiles,measurement,setting,value
CCCCc1nc2cc(/C=C/C(=O)NO)ccc2n1CCN(CC)CC.Cl.Cl,solubility,[1],> 50 mg/mL
same,half-life,[2],7.8 min
same,inhibition in vivo at 100 mg/kg,HCT-116 [3],90%
same,CL/F,[4],453 mL/min/kg
same,Activity,Mus musculus [5],Non-toxic
same,inhibition,[6],inactive
same,Activity,Mus musculus [7],14.6%
same,logD,[8],2.07
same,solubility,[9],> 50 mg/mL
same,Time,[10],5.1 h
same,Activity,Mus musculus [11],12%
same,inhibition in vivo at 50 mg/kg,HCT-116 [12],66%
same,inhibition in vivo at 100 mg/kg,HCT-116 [13],98%
same,inhibition (INH),[14],Not Active
same,Tmax,[15],10.2 min
same,Time,[16],10 h
same,half-life,[17],27 min
